From US20260217863A1, “ANTIBODY OR PEPTIDE BINDING SPECIFICALLY TO RNASE A, IMMUNOASSAY DEVICE AND METHOD FOR DETECTING RNASE A, AND METHOD FOR COLLECTING RNASE A” (UIF (University Industry Foundation), Yonsei University, priority 2022, published 2026)
Where no end group is shown, it is not given here.

Each sequence was assayed against T1, RNase A (Bos taurus, UniProt P61823) (assay: SPR biosensor binding analysis with immobilized RNase A). Conditions: synthetic peptides, 0.37-10 μM; RNase A immobilized on Au chip; read-out: affinity constant (KD).
T1 sequence (P61823 27-150): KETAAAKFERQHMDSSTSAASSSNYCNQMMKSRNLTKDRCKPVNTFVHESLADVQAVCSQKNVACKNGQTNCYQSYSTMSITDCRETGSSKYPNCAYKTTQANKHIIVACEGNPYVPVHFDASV
Parameters: Ribonuclease A (Type II-A) from bovine pancreas; purchased Sigma-Aldrich Korea; host or cells: bovine pancreas; species or system bovine
Method: Binding analysis of the expressed FV antibody and synthesized peptides against RNase A was performed using an SPR (Surface Plasmon Resonance) biosensor from I-Cluebio (Seongnam, Korea). RNase A was immobilized on the gold surface of the SPR chip used in the SPR biosensor to conduct the binding analysis. For the manufacture of the SPR chip, a 2 nm thick titanium adhesive layer and a 48 nm thick gold surface were consecutively sputter-coated onto BK-7 glass (1×1 cm^2). […] To analyze the binding of the expressed Fv antibody to RNase A, Fv antibodies in the concentration range of 0.37-100 nM were reacted using PBS buffer as the […] through association (10 minutes), equilibrium (5 minutes), and dissociation (10 minutes) steps. The washing buffer and total SPR measurements were performed at a flow rate of 15 μL/min. For the binding analysis of the synthesized peptides against RNase A, peptides in the concentration range of 0.37-100 nM were reacted using PBS buffer as the washing buffer through association (10 minutes), equilibrium (5 minutes), and dissociation (10 minutes) steps, and total SPR measurements were conducted at a flow rate of 15 μL/min.
Using the screened CDR3 amino acid sequences, the CDR3 regions of the screened Fv antibodies were synthesized as peptides, and the amino acid sequences were determined from the nucleotide sequences of the CDR3 regions as summarized in Table 2. These synthetic peptides (Peptide-1, Peptide-2, Peptide-3) and Fv antibodies (Fv-1, Fv-2, Fv-3) were identical to the amino acid sequences of the CDR3 regions of the screened clones. […] The SPR signal was plotted according to the concentration of the synthetic peptides, and the affinity constants (KD) of these synthetic peptides were calculated through a fitting process. […]
Using the screened CDR3 amino acid sequences, the CDR3 regions of the screened Fv antibodies were synthesized as peptides, and the amino acid sequences were determined from the nucleotide sequences of the CDR3 regions as summarized in Table 7. […]

| Kd [µM] | Sequence |
| --- | --- |
| 1.3 ± 0.1 | CGPDSDVMTDF [Peptide-1] |
| 3.7 ± 1.1 | DGTAKKSRKDD [Peptide-3] |

| Sequence | Kd [µM] |
| --- | --- |
| YGPVGRVKRDD [Peptide-2] | 1.3 ± 0.3 |
